Results from the supplement of paper PMC10307832.

Experiments:
Test in all cases: relative viability (nuclei count vs DMSO), 5 days (fraction); higher = more cells survive
[1] = compound: COc1cc2c(Oc3ccc4[nH]c(C)cc4c3F)ncnc2cc1OCCCN1CCCC1 [Cediranib] + COc1cc2c(Oc3ccc(NC(=O)C4(C(=O)Nc5ccc(F)cc5)CC4)cc3F)ccnc2cc1OCCCN1CCOCC1 [Foretinib] (partner 0.25 µM)
Summary of the method: (§1)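 Lung cancer cell lines were seeded in 1536-well plates and dosed by pin tool the next day, with either a single drug or a fixed anchor-drug dose combined with five library-drug doses (not always all listed) spaced in √10 steps. Five days later, one step fixed the cells and stained their nuclei (final 0.05% Triton X-100, 1% formaldehyde, 1 ug/ml Hoechst), and nuclei were counted on 4× images. Relative viability is the nuclei count in treated wells divided by the count in vehicle wells, and each value is the median of duplicate plates.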

[2] = compound: O=C(C[C@H]1NCCC[C@@H]1O)Cn1cnc2cc(Br)c(Cl)cc2c1=O (racemic) [Halofuginone] + CC(=O)Nc1cccc(-n2c(=O)n(C3CC3)c(=O)c3c(Nc4ccc(I)cc4F)n(C)c(=O)c(C)c32)c1 [Trametinib] (partner 0.02 µM)
Summary of the method: as §1

[3] = compound: O=C(C[C@H]1NCCC[C@@H]1O)Cn1cnc2cc(Br)c(Cl)cc2c1=O (racemic) [Halofuginone] + CCNC(=O)c1noc(-c2cc(C(C)C)c(O)cc2O)c1-c1ccc(CN2CCOCC2)cc1 [Luminespib] (partner 0.01 µM)
Summary of the method: as §1

[4] = compound: O=C(C[C@H]1NCCC[C@@H]1O)Cn1cnc2cc(Br)c(Cl)cc2c1=O (racemic) [Halofuginone] + CS(=O)(=O)CCNCc1ccc(-c2ccc3ncnc(Nc4ccc(OCc5cccc(F)c5)c(Cl)c4)c3c2)o1 [Lapatinib] (partner 2 µM)
Summary of the method: as §1

Cell Line | relative viability ([1]; first compound 0.04 µM) | relative viability ([1]; first compound 0.1265 µM) | relative viability ([1]; first compound 0.4 µM) | relative viability ([1]; first compound 1.265 µM) | relative viability ([1]; first compound 4 µM) | relative viability ([2]; first compound 0.001 µM) | relative viability ([2]; first compound 0.003162 µM) | relative viability ([2]; first compound 0.01 µM) | relative viability ([2]; first compound 0.03162 µM) | relative viability ([2]; first compound 0.1 µM) | relative viability ([3]; first compound 0.001 µM) | relative viability ([3]; first compound 0.003162 µM) | relative viability ([3]; first compound 0.01 µM) | relative viability ([3]; first compound 0.03162 µM) | relative viability ([3]; first compound 0.1 µM) | relative viability ([4]; first compound 0.001 µM) | relative viability ([4]; first compound 0.003162 µM) | relative viability ([4]; first compound 0.01 µM) | relative viability ([4]; first compound 0.03162 µM) | relative viability ([4]; first compound 0.1 µM)
NCI-H2087 | 1.19 | 1.06 | 0.944 | 1.15 | 1.29 | 0.219 | 0.213 | 0.222 | 0.197 | 0.156 | 0.179 | 0.152 | 0.178 | 0.174 | 0.134 | 1.05 | 1.29 | 1.21 | 0.959 | 1.19
NCI-H2126 | 1.26 | 1.2 | 1.04 | 1.16 | 1.05 | 0.525 | 0.544 | 0.585 | 0.546 | 0.513 | 0.901 | 0.92 | 0.928 | 0.914 | 0.675 | 0.798 | 0.732 | 0.773 | 0.743 | 0.683
NCI-H2170 | 1.02 | 0.987 | 0.931 | 1.01 | 1.12 | 0.856 | 0.852 | 0.954 | 0.948 | 0.868 | 0.681 | 0.631 | 0.557 | 0.758 | 0.603 | 0.279 | 0.296 | 0.259 | 0.291 | 0.249
NCI-H2228 | 0.986 | 0.882 | 0.761 | 0.838 | 0.99 | 0.662 | 0.4 | 0.436 | 0.39 | 0.0996 | 0.136 | 0.139 | 0.12 | 0.118 | 0.126 | 1.06 | 1.02 | 0.908 | 0.657 | 0.121
NCI-H2347 | 0.918 | 1.03 | 0.996 | 0.833 | 0.957 | 0.256 | 0.284 | 0.289 | 0.258 | 0.253 | 0.513 | 0.321 | 0.483 | 0.511 | 0.598 | 1 | 0.853 | 0.906 | 0.918 | 0.65
NCI-H2405 | 1.1 | 1.13 | 1.03 | 1.1 | 1.02 | 0.696 | 0.69 | 0.678 | 0.599 | 0.502 | 0.797 | 0.691 | 0.72 | 0.688 | 0.663 | 1.14 | 1.01 | 1.02 | 1.02 | 0.861
NCI-H3122 | 0.938 | 1.03 | 0.991 | 0.844 | 1.02 | 0.192 | 0.241 | 0.258 | 0.219 | 0.25 | 0.0978 | 0.0825 | 0.0899 | 0.0925 | 0.148 | 1.02 | 1.05 | 0.975 | 0.987 | 1.04
PC-3 [JPC-3] | 1.1 | 1.1 | 0.98 | 1.05 | 1.08 | 0.722 | 0.741 | 0.664 | 0.648 | 0.538 | 0.705 | 0.714 | 0.626 | 0.823 | 0.661 | 0.466 | 0.428 | 0.436 | 0.511 | 0.461
PC-14 | 1.04 | 1.08 | 0.861 | 0.997 | 0.928 | 0.809 | 0.618 | 0.702 | 0.154 | 0.0395 | 0.152 | 0.161 | 0.183 | 0.184 | 0.104 | 0.325 | 0.311 | 0.343 | 0.419 | 0.313
RERF-LC-KJ | 0.917 | 0.889 | 0.873 | 0.862 | 0.953 | 0.924 | 0.984 | 0.837 | 0.824 | 0.591 | 1.47 | 1.27 | 1.22 | 1.25 | 0.887 | 0.951 | 0.888 | 0.795 | 0.833 | 0.874
SK-LU-1 | 0.945 | 0.825 | 0.725 | 0.876 | 0.972 | 0.572 | 0.504 | 0.559 | 0.461 | 0.321 | 0.202 | 0.196 | 0.23 | 0.219 | 0.174 | 0.945 | 1.04 | 0.806 | 0.787 | 0.505
SK-MES-1 | 0.834 | 1.02 | 0.927 | 0.901 | 0.976 | 0.554 | 0.53 | 0.511 | 0.499 | 0.232 | 0.842 | 0.704 | 0.756 | 0.284 | 0.164 | 0.486 | 0.454 | 0.474 | 0.409 | 0.342
SW 1573 | 0.937 | 1.01 | 0.912 | 0.996 | 1.09 | 0.563 | – | 0.596 | 0.23 | 0.0886 | 0.507 | 0.152 | 0.265 | 0.113 | 0.0969 | 1.13 | 1.29 | 1.1 | 1.1 | 1.07
